pEC50: −log10 of the molar value. Like-named read-outs stand apart in the source and are kept apart here.
Assays:
[1] = tested on: asexual blood-stage P. falciparum strain Dd2L; test: asexual blood-stage P. falciparum assay with SYBR Green detection; format: cell-based, Plasmodium falciparum; conditions: for blood-stage antimalarial activity (in words): P. falciparum; for pEC50: Plasmodium falciparum, 72 h
Description: A standard method for evaluating antimalarial activity with asexual blood-stage P. falciparum and SYBR Green detection was used to assess the potency of extracts, fractions, and compounds [50]. Screening media was prepared from complete media supplemented with 0.05% Albumax II (but without human serum). Dr. David Fidock of Columbia University provided P. falciparum strain Dd2L, which was cultured with fresh O+ erythrocytes (TSRI Normal Blood Donation). Compounds were transferred to assay plates using a Labcyte ECHO acoustic liquid handler. Fresh and parasitized erythrocytes were prepared in screening media before inoculating plates (Multi-Flo; BioTek, VT) with a final hematocrit of 2.5% and a final parasitemia of 0.3%. The assay plates were incubated for 72 h in a chamber at 37 °C with a low oxygen gas formulation with daily gas exchanges. After incubation, a Multi-Flo liquid dispenser transferred SYBR Green lysis buffer to the wells, and the plates were incubated for another 24 h at room temperature to achieve optimal development of fluorescence signal, which was read by an Envision Multimode Reader (PerkinElmer, MA).

[2] = tested on: liver-stage P. berghei (Pb-Luc sporozoites in HepG2 cells); test: microbe, parasite or virus in culture; format: cell-based, Plasmodium berghei; conditions: read-out: Liver-Stage P. berghei half-maximal effective concentration (EC50)
Description: Activity against liver-stage P. berghei was quantified for extracts, fractions, and pure compounds using a slightly modified 48 h luminescence-based assay. The salivary gland of infected Anopheles stephensi was dissected to harvest P. berghei-ANKA-GFP-LucSMCON (Pb-Luc) sporozoites (originally received from Dr. Ana Rodriguez of NYU School of Medicine; last round of testing to evaluate pure 1, 3–5 used infected mosquitoes from Elizabeth Winzeler at UCSD and Dennis Kyle at UGA) which were filtered through a 20 μm nylon net filter twice (Steriflip, Millipore, MA), counted with a hemocytometer, and adjusted to achieve a final concentration of 200 sporozoites/1 μL in the assay media (DMEM without Phenol Red (Life Technologies, CA), 5% FBS, and 5 × Pen−Strep and glutamine (Life Technologies, CA)). A Multi-Flo (BioTek, VT) with a 1 μL cassette was used to transfer purified sporozoites, 1 × 10^3 sporozoites per well (5 μL), to assay plates containing HepG2 cells. After incubation at 37 °C for 48 h, a bioluminescence measurement was taken to assess the liver-stage growth. More specifically, media was removed by inverting the plates, and spinning them at 150 × g for 30 s, and 2 μL per well of BrightGlo (Promega, WI) was added for quantification of Pb-Luc viability. The luminescence was measured immediately after addition of the luminescence reagent using an Envision Multilabel Reader (PerkinElmer, MA).

[3] = tested on: HEK293T cells; test: HEK293T cytotoxicity; conditions: for HEK293T Cytotoxicity, half-maximal cytotoxicity concentration: HEK293T cells
Description: A previously described method was utilized to evaluate cytotoxicity against HepG2 and HEK293T cells as a measure of general human toxicity. Assay data generated for Plasmodium was analyzed with a Genedata Screener (v13.0-Standard). Inhibitors (puromycin for cytotoxicity and atovaquone for liver-stage parasites) were subtracted from neutral controls to normalize data. The Smart Fit function of the Genedata Analyzer generated dose-response curves that were used to calculate the half-maximal effective concentrations (EC50).

[4] = tested on: HepG2 cells; test: HepG2 cytotoxicity; format: cell-based, human; conditions: for HepG2 Cytotoxicity, half-maximal cytotoxicity concentration: HepG2 cells
Description: A previously described method was utilized to evaluate cytotoxicity against HepG2 and HEK293T cells as a measure of general human toxicity [52]. Assay data generated for Plasmodium was analyzed with a Genedata Screener (v13.0-Standard). Inhibitors (puromycin for cytotoxicity and atovaquone for liver-stage parasites) were subtracted from neutral controls to normalize data. The Smart Fit function of the Genedata Analyzer generated dose-response curves that were used to calculate the half-maximal effective concentrations (EC50).

[5] = target: T1, rabbit muscle actin (Oryctolagus cuniculus, UniProt P68135); test: actin polymerization assay (pyrene-labeled rabbit muscle actin); format: biochemical
T1 construct: purchased Abcam ab239724
From the text: Of the proteins predicted to bind to kakeromamide (1), actin and sortilin were deemed worthy of further evaluation given their higher predicted binding values. However, no in vitro sortilin assay is available. In contrast, actin polymerization assays are frequently employed to assess agents that affect actin dynamics, albeit using mammalian homologs of actin. Since 1 was predicted to bind to both Plasmodium and mammalian actin proteins but only mammalian actin assays are commercially available, an actin polymerization assay that uses pyrene-labeled rabbit muscle actin was employed. Several natural products are known to disrupt actin’s function by either inhibiting or stabilizing polymerization, which could arise from ligand binding. Since apicomplexan actins (including those of Plasmodium) and mammalian actins are relatively divergent, Plasmodium actin might be a useful molecular target. […] Similar activity by 1 could be one possible explanation for the observed increase in actin polymerization with increasing concentrations of 1. Although 1 appears to impact mammalian actin polymerization, future tests evaluating the impact of 1 on Plasmodium actin function would be worthwhile in order to further elucidate whether interactions with actin are relevant to this natural product’s mechanism of action on the malaria parasite.
The computationally predicted binding of 1 to actin was experimentally evaluated using a rabbit muscle actin polymerization assay kit from Abcam (kit ab239724) using the manufacturer’s protocol. Mean signal for n = 3 (actin polymerization control, solvent control, and background) or n = 2 (four different concentrations of latrunculin A and kakeromamide B) replicates was acquired for time points taken every 30 s for 1 h on a Synergy H4 plate reader. The results were plotted in GraphPad Prism 8 with an exponential plateau curve.

[6] = read-out: Blood-Stage P. falciparum half-maximal effective concentration (EC50), asexual blood-stage, strain Dd2L, 72 h, SYBR Green
[7] = Plasmodium berghei, HepG2, 48 h, sporozoites from University of California San Diego (UCSD), 48 h
[8] = Plasmodium berghei, HepG2, 48 h, sporozoites from the University of Georgia (UGA), 48 h
[9] = Plasmodium berghei, HepG2, 48 h

`CO[C@@H]1[C@@H](OC)[C@H](C)O[C@@H](O[C@@H]2C[C@@H]3CC[C@H](C)[C@@H](O)C[C@](C)(CC/C=C/C=C/Br)OC(=O)C[C@](O)(C2)O3)[C@@H]1OC` [Compound 4, 18E-lyngbyaloside C] was tested, and the “blood-stage antimalarial activity (in words)” value [1] was “inactive”, the pEC50 [1, 6] was under 4.72 and the pEC50 [2, 7] was under 4.80. The pEC50 [2, 8] was 5.15, the “HEK293T Cytotoxicity, half-maximal cytotoxicity concentration” value (shortened to “HEK293T Cytotoxicity”) [3] was over 31 µM and the “HepG2 Cytotoxicity, half-maximal cytotoxicity concentration” value (from here on “HepG2 Cytotoxicity”) [4] was 17 µM.

`C/C1=C/C(=O)O[C@@H]2C[C@@H](CC[C@H](C)/C=C\C=C\CC1)O[C@@](O)([C@@H]1CSC(=O)N1)C2` [latrunculin A, reference compound] was tested, and the “concentrations at which actin polymerization was suppressed” value ([5]; Figure S23) was “above 1.2 µM”.

In the case of `OC(c1cc(C(F)(F)F)nc2c(C(F)(F)F)cccc12)C1CCCCN1` (stereo not shown) [mefloquine, reference compound], the pEC50 [1, 6] was 8.54.

With `CCCCCC1NC(=O)c2csc(n2)C(C)NC(=O)C(Cc2ccc(OC)cc2)N(C)C(=O)C(Cc2ccc(OC)cc2)N(C)C(=O)C(C(C)C)NC(=O)C1C` (stereo not shown) [Compound 1, kakeromamide B] the “blood-stage antimalarial activity (in words)” value [1] was “only moderately active”, the pEC50 [1, 6] was 5.05 and the pEC50 [2, 7] was under 4.92. The pEC50 [2, 8] was 4.96, the “HEK293T Cytotoxicity” value [3] was over 23 µM and the “cytotoxicity against HEK293T (in words)” value ([3]; HEK293T human cell line) was “did not exhibit toxicity”. The “HepG2 Cytotoxicity” value [4] was over 23 µM, the “cytotoxicity against HepG2 / human liver cells (in words)” value ([4]; HepG2 human cell line) was “did not exhibit toxicity” and the “effect on mammalian actin polymerization (in words)” value ([5]; dose dependence) was “stimulated actin polymerization in a dose-dependent manner”. For the same compound, the “effect on actin polymerization relative to controls” value ([5]; highest tested concentration, 25 µM, Figure S23) was “enhancing actin polymerization” and the “effect on actin polymerization relative to controls” value ([5]; lowest tested concentration, 0.025 µM, Figure S23) was “moderately suppressed polymerization”.

`CC1(C)c2nc(-c3ccc(F)cc3)c(Nc3ccc(F)cc3)n2CCN1C(=O)CN` [ganaplacide, reference compound] was tested, and the pEC50 [1, 6] was 8.23.

With `CC[C@H](C)[C@@H]1NC(=O)CNC(=O)c2csc(n2)[C@H](C(C)(C)O)OC(=O)C(C)(C)[C@H](CCCC(C)(Cl)Cl)OC(=O)c2csc1n2` [Compound 3, lyngbyabellin A] the pEC50 [1, 6] was 8.82, the pEC50 [2, 9] was under 5.00 and the pEC50 ([2]; sporozoites from University of California San Diego (UCSD), 48 h) was under 5.00. The “HEK293T Cytotoxicity” value [3] was 19 µM, the “selectivity index for Plasmodium versus HEK293T” value ([3]; blood-stage P. falciparum versus normal kidney epithelial cells (HEK293T)) was 13,000 and the “HepG2 Cytotoxicity” value [4] was 3.3 µM. The “selectivity index for Plasmodium versus HepG2” value ([4]; blood-stage P. falciparum versus human liver carcinoma cells (HepG2)) was 2,200.

`O=C1C(O)=C([C@H]2CC[C@H](c3ccc(Cl)cc3)CC2)C(=O)c2ccccc21` [Atovaquone, reference compound] showed a pEC50 [2, 7] of 8.43, a pEC50 [2, 8] of 8.77 and a pEC50 ([2]; Plasmodium berghei, HepG2, 48 h, sporozoites sourced from New York University (NYU) School of Medicine, 48 h) of over 9.55. For the same compound, the “HEK293T Cytotoxicity” value [3] was over 2.0 µM.

`CCC[C@H]1NC(=O)c2csc(n2)[C@H](C)NC(=O)[C@H](C(C)C)N(C)C(=O)[C@H](Cc2ccccc2)N(C)C(=O)[C@H](C)OC(=O)[C@@H]1C` [Compound 2, ulongamide A] was tested, and the pEC50 ([1]; read-out: Blood-Stage P. falciparum half-maximal effective concentration (EC50)) was 6.00, the pEC50 [2, 9] was under 5.40 and the “HEK293T Cytotoxicity” value [3] was over 4.8 µM.

For `CO[C@@H]1[C@@H](OC)[C@H](C)O[C@@H](O[C@@H]2C[C@H]3O[C@@](O)(C2)[C@H](C)C(=O)O[C@@H](/C=C/C=C/Br)C[C@@H](C)/C=C\C[C@H](O)[C@@H]3C)[C@@H]1OC` [Compound 5, lyngbyaloside], the “blood-stage antimalarial activity (in words)” value [1] was “inactive”, the pEC50 [1, 6] was under 5.10 and the pEC50 [2, 7] was under 5.20. The pEC50 [2, 8] was 5.35, the “HEK293T Cytotoxicity” value [3] was over 13 µM and the “HepG2 Cytotoxicity” value [4] was over 13 µM.

Reference: PMC7142784, “Antimalarial Peptide and Polyketide Natural Products from the Fijian Marine Cyanobacterium Moorea producens” (Marine Drugs, 2020)
